The source of these data is publication PMC8069832, “New Amides and Phosphoramidates Containing Selenium: Studies on Their Cytotoxicity and Antioxidant Activities in Breast Cancer” (Antioxidants, 2021).

The test system of data set [1] is HT-29. The experiment in a line: cells. To be noted: Homo sapiens, HT-29, 48 h; for activity at 10 µM: read-out: Cell growth (%) HT-29.
In data set [2] the test system is CCRF-CEM. Kind of data set: cells. The settings on record: Homo sapiens, 48 h; for activity at 10 µM: read-out: Cell growth (%) CCRF-CEM.
For data set [3], the system named is MCF-7. Kind of data set: cells. The settings on record: Homo sapiens, MCF7, 48 h; for activity at 10 µM: read-out: Cell growth (%) MCF-7.
The test system of data set [4] is HTB-54. The experiment in a line: cells. The format is cell-based. To be noted: Homo sapiens. As for the experimental part:
(§1) Cell lines were provided by the European Collection of Cell Cultures (ECACC) or by the American Type Culture Collection (ATCC). Seven cell lines were used: MCF-7 (breast adenocarnicoma), 184B5 (nonmalignant, mammary gland derived), CCRF-CEM (lymphoblastic leukemia), HT-29 (colon carcinoma), HTB-54 (lung carcinoma), BEAS-2B (nonmalignant, derived from the bronchial epithelium) and PC-3 (prostate carcinoma). MCF-7, CCRF-CEM, HT-29, HTB-54, BEAS-2B and PC-3 cell lines were grown in RPMI medium (Gibco) supplemented with 10% fetal bovine serum (FBS; Gibco), 100 units/mL penicillin and […] streptomycin (Gibco). 184B5 cells were grown in DMEM/F12 medium supplemented with 5% FBS, 1 × ITS (Lonza), 100 nM hydrocortisone (Aldich), 2 mM sodium pyruvate (Lonza), 20 ng/mL EGF (Sigma-Aldrich), 0.3 nM trans-retinoic acid (Sigma-Aldrich), 100 units/mL penicillin and […] streptomycin. Cells were maintained at 37 °C and 5% CO2.
(§2) The cytotoxic effect of each substance was tested by the MTT method. Each compound was initially dissolved in DMSO at a concentration of 0.01 M, and serial dilutions were prepared with nonsupplemented medium. The cytotoxic effect of each compound was tested at 50 and 10 µM as a first screening. […]
(§3) A total of 1 × 10^4 cells/well in 96-well plates were treated with increasing concentrations of the corresponding compounds for 48 h at 37 °C in a humidified atmosphere containing 5% CO2. Then, cells were incubated with 50 µL of MTT (2 mg/mL stock) for 4 h. The medium was then removed by aspiration, and the formazan crystals were dissolved in […] of DMSO. […] Data were obtained from at least 3 independent experiments performed in quadruplicate. The standard error of the means (SEM) for the cytotoxic parameters was calculated applying the standard deviation formula to the mean values of each parameter for the three independent experiments performed.
(§4) . Cisplatin was used as a standard drug. […]. […] The presence of electron-withdrawing groups (-NO2, -CF3, -Cl) in the phenyl ring favored the cytotoxic activity in the amides, but in the phosphoramidates, the best results were obtained for aliphatic chains methoxy (II.1b, II.2b) and ethoxy (II.1d, II.2d). […].

For data set [5], the system named is PC-3. Kind of data set: cells. It counts as cell-based. To be noted: Homo sapiens. The protocol: as §1, §2, §3, §4
The nature of data set [6]: MTT cytotoxicity in nonmalignant mammary gland derived cells. It counts as cell-based. To be noted: human. The protocol:
as §1, §2, §3, §4
(§5) The lack of selectivity toward cancerous cells is one of the major issues during the discovery and development of new anticancer agents. Therefore, we evaluated the cytotoxic activity of our compounds against two cell lines derived from nonmalignant breast tissue (184B5) and no malignant bronchial epithelium (BEAS-2B) (Table 2). […].

The test system of data set [7] is 184B5. The description is as above. It counts as cell-based. The protocol: as §1, §2, §3, §4, §5
The test system of data set [8] is BEAS-2B. Kind of data set: MTT cytotoxicity in nonmalignant bronchial epithelium cells. The format is cell-based. The protocol: as §1, §2, §3, §4, §5
Assay in data set [9]: as above
The format is cell-based. The settings on record: human. As for the experimental part: as §1, §2, §3, §4, §5

Turning to `COc1ccc(C(=O)Nc2ccc([Se][Se]c3ccc(NC(=O)c4ccc(OC)cc4)cc3)cc2)cc1` [I.1c], the activity at 10 µM in data set [1] turned out to be 81.4%; in [2], 57.5%; in [3], 79%.
In the same order, the values of `O=P(Nc1ccc([Se][Se]c2ccc(NP(=O)(Oc3ccccc3)Oc3ccccc3)cc2)cc1)(Oc1ccccc1)Oc1ccccc1` [II.1c] are 109%, 85.2% and 94%.
For the molecule `O=C(Nc1ccc([Se][Se]c2ccc(NC(=O)c3ccco3)cc2)cc1)c1ccco1` [I.1h], the activity at 10 µM in [1] was 62.1%; in data set [2], 34.1%; in data set [3], 63.5%. Also, the 50% growth inhibitory concentration (GI50) came out at 17.4 ± 1.9 µM in data set [1] (read-out: GI50 HT-29); 20.8 ± 2.5 µM in data set [4] (HTB-54, 48 h, average ± SEM, read-out: GI50 HTB54); 2.3 ± 0.3 µM in data set [5] (PC-3, 48 h, average ± SEM, read-out: GI50 PC-3); 19.9 µM in [7] (Homo sapiens, 184B5, nonmalignant cells, 48 h, read-out: GI50 184B5); 4.1 ± 2.4 µM in data set [2] (read-out: GI50 CCRF-CEM); 18 ± 2.3 µM in data set [3] (read-out: GI50 MCF-7, 48 h, average ± SEM). In addition, the GI50 in data set [8] (Homo sapiens, BEAS-2B, nonmalignant cells, 48 h, read-out: GI50 BEAS-2B) was 10.6 µM. Also, the CC50 turned out to be 74.3 ± 0.7 µM in [1] (read-out: LC50 HT-29); 76.3 ± 3.6 µM in data set [4] (HTB-54, 48 h, read-out: LC50 HTB54); 72.8 ± 2.9 µM in data set [2] (read-out: LC50 CCRF-CEM); 76.6 ± 2.5 µM in data set [3] (read-out: LC50 MCF-7). In addition, the IC (TGI) in data set [1] (read-out: TGI HT-29) turned out to be 45.8 ± 1.2 µM; in [4] (HTB-54, 48 h, average ± SEM, read-out: TGI HTB54), 48.6 ± 1.8 µM; in data set [5] (PC-3, 48 h, average ± SEM, read-out: TGI PC-3), 27.6 ± 2.8 µM; in [7] (Homo sapiens, 184B5, nonmalignant cells, 48 h, read-out: TGI 184B5) it was 47.2 µM; in data set [2] (read-out: TGI CCRF-CEM), 36.1 ± 1.4 µM; in data set [3] (read-out: TGI MCF-7) it was 47.3 ± 2.4 µM. The IC (TGI) in data set [8] (Homo sapiens, BEAS-2B, nonmalignant cells, 48 h, read-out: TGI BEAS-2B) was found to be 40.6 µM. Also, the LC50 in data set [5] (PC-3, 48 h, read-out: LC50 PC-3) was found to be 65.6 ± 4.1 µM. Further, the LC50 (50% lethal concentration) at 48 h was 74.4 µM in data set [6] and 70.7 µM in [9]. In addition, the “Selectivity index (SI) = GI50 (184B5)/GI50 (MCF-7)” value in [7] (breast) is reported as 1.11. Further, the “Selectivity index (SI) = GI50 (BEAS-2B)/GI50 (HTB-54)” value in data set [8] (lung) is 0.51.
As to `CSc1ccc(C(=O)Nc2ccc([Se]C#N)cc2)cc1` [I.2n], the activity at 10 µM was 101% in data set [1], 100% in [2] and 69.5% in [3].
`Cc1ccc(OP(=O)(Nc2ccc([Se][Se]c3ccc(NP(=O)(Oc4ccc(C)cc4)Oc4ccc(C)cc4)cc3)cc2)Oc2ccc(C)cc2)cc1` [II.1g]: the activity at 10 µM is 104% in data set [1], 111% in data set [2] and 82.6% in data set [3].
The matching figures for `O=C(/C=C/c1ccccc1)Nc1ccc([Se][Se]c2ccc(NC(=O)/C=C/c3ccccc3)cc2)cc1` [I.1l]: 93%, 50% and 76.7%.
For the molecule `Cc1ccc(C(=O)Nc2ccc([Se]C#N)cc2)cc1` [I.2g], the activity at 10 µM in data set [1] turned out to be 94.1%; in data set [2] it was 94.3%; in data set [3], 70.4%.
Take `N#C[Se]c1ccc(NC(=O)c2ccc(C#N)cc2)cc1` [I.2d]: the activity at 10 µM in [1] was 105%; in [2] it was 115%; in data set [3], 74.3%.
As to `O=C(Nc1ccc([Se][Se]c2ccc(NC(=O)c3ccno3)cc2)cc1)c1ccno1` [I.1j], the activity at 10 µM in data set [1] was found to be 98.9%; in [2], 112%; in data set [3], 92.2%.
As for `N#C[Se]c1ccc(NC(=O)C23CC4CC(CC(C4)C2)C3)cc1` [I.2k], the activity at 10 µM in data set [1] came to 99.7%; in data set [2] it was 107%; in data set [3] it was 113%.
The matching figures for `O=C(Nc1ccc([Se][Se]c2ccc(NC(=O)c3cccs3)cc2)cc1)c1cccs1` [I.1i]: 98.2%, 100% and 104%.
In the case of `Cc1ccc(OP(=O)(Nc2ccc([Se]C#N)cc2)Oc2ccc(C)cc2)cc1` [II.2g], the results for the activity at 10 µM in [1], in data set [2] and in [3] were 99.1%, 108% and 75.6%, respectively.
Take `N#C[Se]c1ccc(NP(=O)(Oc2ccccc2)Oc2ccccc2)cc1` [II.2c]: the activity at 10 µM in data set [1] came out at 116%; in data set [2], 81.9%; in data set [3] it was 114%.
The matching figures for `N#C[Se]c1ccc(NC(=O)c2ccccc2)cc1` [I.2a]: 71.6%, 103% and 63.7%.
In the same order, the values of `N#Cc1ccc(C(=O)Nc2ccc([Se][Se]c3ccc(NC(=O)c4ccc(C#N)cc4)cc3)cc2)cc1` [I.1d] are 109%, 101% and 79.1%.
The matching figures for `N#C[Se]c1ccc(NC(=O)/C=C/c2ccccc2)cc1` [I.2l]: 76%, 62% and 65%.
On to `O=C(Nc1ccc([Se][Se]c2ccc(NC(=O)c3ccccc3)cc2)cc1)c1ccccc1` [I.1a], for which the activity at 10 µM in [1] was 82.6%; in data set [2], 103%; in [3], 79.7%.
As for `N#C[Se]c1ccc(NP(=O)(Nc2ccccc2)Oc2ccccc2)cc1` (centres unmarked) [II.2f], the activity at 10 µM in data set [1] was 64.6%; in data set [2], 22.3%; in data set [3], 61.4%.
For `O=C(Nc1ccc([Se][Se]c2ccc(NC(=O)C34CC5CC(CC(C5)C3)C4)cc2)cc1)C12CC3CC(CC(C3)C1)C2` [I.1k], the activity at 10 µM in data set [1] was 97.1%; in [2], 90.2%; in data set [3], 88%.
The matching figures for `O=C(Nc1ccc([Se][Se]c2ccc(NC(=O)c3cccc4ccccc34)cc2)cc1)c1cccc2ccccc12` [I.1m]: 78.8%, 74.4% and 75.5%.
As to `O=P(Nc1ccccc1)(Nc1ccc([Se][Se]c2ccc(NP(=O)(Nc3ccccc3)Oc3ccccc3)cc2)cc1)Oc1ccccc1` (centres unmarked) [II.1f], the activity at 10 µM in [1] is 106%; in data set [2], 125%; in [3], 90%.
The matching figures for `N#C[Se]c1ccc(NC(=O)c2cccc3ccccc23)cc1` [I.2m]: 101%, 70.9% and 101%.
In the case of `COc1ccc(C(=O)Nc2ccc([Se]C#N)cc2)cc1` [I.2c], the activity at 10 µM in [1] came to 93.3%; in data set [2], 76.5%; in data set [3] it was 97.8%.

Usually GI50 stands for the concentration giving 50% growth inhibition. For orientation: LC50 means the concentration that kills 50% of the test population.
